Source: patent US11104664B2, “4,5,6-trisubstituted indazole derivatives, and preparation method and pharmaceutical use thereof” (SHANGHAI HAIYAN PHARMACEUTICAL TECHNOLOGY CO., LTD., priority 2016, dated 2021)

Tests used:
[1] = target: Recombinant PRC2 (EZH2-Y641F) (Homo sapiens (Human), UniProt Q15910, Y641F); experiment: In vitro methyltransferase activity assay (LANCE Ultra); format: biochemical; details: for IC50: 2.5 μM SAM/250 nM H3(1-50)K27me1, 3 hours, room temperature
Experimental: Recombinant PRC2 (EZH2-Y641F) was purchased from Active motif, S-adenosyl-methionine (SAM) and Poly-L-lysine (PLL) were purchased from Sigma-Aldrich, and H3(1-50)K27me1 peptide was purchased from Cisbio. LANCEUltrasystem (Perkinelmer) was used for detection system. In the enzyme activity test, compounds to be tested were diluted by 8 gradient points in a ratio of 1:3, and added into each well in a reaction plate, and 100 ng recombinase was added, followed by a buffer [20 mM Tris pH8.5, 2 mM MgCl2, 0.01% Tween-20, 1 mM TCEP] containing 2.5 μM SAM/250 nM H3 (1-50)K27me1 premixtures. Enzymatic reaction thus began at room temperature. After reacted for 3 hours, a detection solution premixed with PLL, detection antibody and Ulight was added, and reacted for 1 hour at room temperature. The fluorescence value was then read on a Tecan infinite pro. IC50 was calculated by fitting in a four-factor model in the XLfit software.

Pfeiffer cells = experiment: Cell proliferation assay (Cell counting kit-8, 6 days); format: cell-based; details: Pfeiffer (CRL-2632), 6 days culture
Experimental: The used cell lines Pfeiffer (CRL-2632), suDHL-6 (CRL-2959) and suDHL-10 (CRL-2963) were obtained from American Type Culture Collection (ATCC). All cell lines were cultured in RPMI-1640 medium (Gibco) containing 10% fetal bovine serum (Gibco). The cultured cells were harvested by centrifugation and the cell density was determined using a CounterStar cell counter. Appropriate number of cells were plated in a 96-well culture plate and incubated overnight. Compounds to be tested were diluted by 8 gradient points in a ratio of 1:3 and added into corresponding wells. After continuing to culture for 6 days, the number of viable cells was measured with Cell counting kit-8, and the absorbance value was read on Tecan infinite pro. The IC50 was calculated by fitting in a four-parameter model in the XLfit software.

Sequence of Recombinant PRC2 (EZH2-Y641F) (Q15910 whole entry Y641F): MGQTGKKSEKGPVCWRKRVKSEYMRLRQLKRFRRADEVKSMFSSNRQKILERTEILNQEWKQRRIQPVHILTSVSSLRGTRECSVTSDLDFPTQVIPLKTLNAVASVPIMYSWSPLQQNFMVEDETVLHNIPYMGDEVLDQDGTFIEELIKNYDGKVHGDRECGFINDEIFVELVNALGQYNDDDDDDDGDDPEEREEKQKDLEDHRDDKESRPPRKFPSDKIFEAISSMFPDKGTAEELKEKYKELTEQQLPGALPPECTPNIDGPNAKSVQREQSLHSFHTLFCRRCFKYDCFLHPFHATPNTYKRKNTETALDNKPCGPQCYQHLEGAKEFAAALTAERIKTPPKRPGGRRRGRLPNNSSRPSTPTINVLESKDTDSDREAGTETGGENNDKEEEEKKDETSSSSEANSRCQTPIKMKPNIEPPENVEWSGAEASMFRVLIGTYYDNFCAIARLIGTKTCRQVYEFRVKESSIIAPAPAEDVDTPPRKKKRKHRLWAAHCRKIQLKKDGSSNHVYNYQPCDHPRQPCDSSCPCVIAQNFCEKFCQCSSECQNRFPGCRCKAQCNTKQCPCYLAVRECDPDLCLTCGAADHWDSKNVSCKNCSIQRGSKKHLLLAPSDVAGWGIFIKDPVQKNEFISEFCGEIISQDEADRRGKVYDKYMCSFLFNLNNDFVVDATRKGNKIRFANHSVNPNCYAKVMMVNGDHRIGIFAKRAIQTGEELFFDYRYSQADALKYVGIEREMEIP
Sequence of Recombinant PRC2 (EZH2-Y641F) (O75530 whole entry partner): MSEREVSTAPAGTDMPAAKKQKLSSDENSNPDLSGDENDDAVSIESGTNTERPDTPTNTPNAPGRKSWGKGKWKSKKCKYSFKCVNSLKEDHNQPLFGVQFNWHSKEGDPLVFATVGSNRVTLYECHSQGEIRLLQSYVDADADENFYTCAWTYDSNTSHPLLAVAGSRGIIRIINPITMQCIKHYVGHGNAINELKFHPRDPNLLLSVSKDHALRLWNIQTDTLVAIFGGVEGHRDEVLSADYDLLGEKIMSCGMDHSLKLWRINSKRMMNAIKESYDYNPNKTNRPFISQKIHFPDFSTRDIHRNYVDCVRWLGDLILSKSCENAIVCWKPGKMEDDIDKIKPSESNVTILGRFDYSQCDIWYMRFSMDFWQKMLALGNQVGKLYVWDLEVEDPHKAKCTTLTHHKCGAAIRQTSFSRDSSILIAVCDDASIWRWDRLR
Sequence of Recombinant PRC2 (EZH2-Y641F) (Q15022 whole entry partner): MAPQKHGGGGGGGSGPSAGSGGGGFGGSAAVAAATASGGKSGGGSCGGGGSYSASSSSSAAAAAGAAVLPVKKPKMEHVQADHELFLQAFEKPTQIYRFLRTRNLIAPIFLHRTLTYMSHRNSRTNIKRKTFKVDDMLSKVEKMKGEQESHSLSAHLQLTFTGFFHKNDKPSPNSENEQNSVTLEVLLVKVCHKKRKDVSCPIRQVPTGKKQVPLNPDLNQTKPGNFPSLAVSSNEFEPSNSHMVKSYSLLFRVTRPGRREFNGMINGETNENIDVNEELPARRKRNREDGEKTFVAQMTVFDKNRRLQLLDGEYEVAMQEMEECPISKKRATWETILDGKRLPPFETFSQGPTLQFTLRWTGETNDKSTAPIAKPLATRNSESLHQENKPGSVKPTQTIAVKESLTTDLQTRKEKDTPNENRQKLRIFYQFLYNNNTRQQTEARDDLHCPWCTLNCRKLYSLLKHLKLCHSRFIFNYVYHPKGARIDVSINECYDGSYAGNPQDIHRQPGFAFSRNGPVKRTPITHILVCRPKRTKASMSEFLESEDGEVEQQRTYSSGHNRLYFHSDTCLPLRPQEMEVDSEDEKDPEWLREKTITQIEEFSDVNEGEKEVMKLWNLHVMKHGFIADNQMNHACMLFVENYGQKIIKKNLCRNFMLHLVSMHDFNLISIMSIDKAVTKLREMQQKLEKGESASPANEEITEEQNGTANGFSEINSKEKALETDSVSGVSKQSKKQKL
Sequence of Recombinant PRC2 (EZH2-Y641F) (Q09028 whole entry partner): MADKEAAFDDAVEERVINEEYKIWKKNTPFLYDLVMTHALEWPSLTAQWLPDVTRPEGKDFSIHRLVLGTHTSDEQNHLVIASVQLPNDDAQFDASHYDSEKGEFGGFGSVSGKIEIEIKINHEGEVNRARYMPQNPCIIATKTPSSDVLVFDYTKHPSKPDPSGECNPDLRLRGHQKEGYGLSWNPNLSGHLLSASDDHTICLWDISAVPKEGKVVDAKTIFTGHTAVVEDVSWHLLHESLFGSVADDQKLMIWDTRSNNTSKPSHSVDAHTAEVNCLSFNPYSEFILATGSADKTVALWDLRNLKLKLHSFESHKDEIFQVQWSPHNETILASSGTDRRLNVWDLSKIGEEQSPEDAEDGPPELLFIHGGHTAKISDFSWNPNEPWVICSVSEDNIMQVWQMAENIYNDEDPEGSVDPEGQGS
Sequence of Recombinant PRC2 (EZH2-Y641F) (Q6ZN18 whole entry partner): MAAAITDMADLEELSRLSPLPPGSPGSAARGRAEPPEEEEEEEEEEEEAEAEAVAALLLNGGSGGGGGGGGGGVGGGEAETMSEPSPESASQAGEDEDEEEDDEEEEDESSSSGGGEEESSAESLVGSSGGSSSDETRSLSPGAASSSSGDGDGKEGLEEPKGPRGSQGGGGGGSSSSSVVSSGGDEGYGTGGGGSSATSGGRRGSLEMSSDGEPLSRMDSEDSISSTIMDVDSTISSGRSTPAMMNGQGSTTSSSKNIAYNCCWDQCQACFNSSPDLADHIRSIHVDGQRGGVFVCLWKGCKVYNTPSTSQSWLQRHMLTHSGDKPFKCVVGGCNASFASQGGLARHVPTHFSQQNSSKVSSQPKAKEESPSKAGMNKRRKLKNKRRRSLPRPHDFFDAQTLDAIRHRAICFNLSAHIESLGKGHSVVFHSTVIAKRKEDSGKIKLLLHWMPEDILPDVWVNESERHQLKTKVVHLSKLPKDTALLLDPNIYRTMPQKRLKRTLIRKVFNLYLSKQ

| Structure (SMILES) | IC50 [1] [nM] | inhibitory activity against the enzyme (in words) ([1]; SAR comment on Table 1, reduced relative to comparator compounds (P-7, P-13/14)) | IC50 (Pfeiffer cells) [nM] | IC50 (Pfeiffer cells; Homo sapiens, 144 h) [nM] |
| --- | --- | --- | --- | --- |
| CCc1c(C(=O)NCc2c(OC)cc(C)[nH]c2=O)cc2c(cnn2C)c1N(C)[C@H]1CC[C@H](N(C)CCOC)CC1 [P-21, 5-ethyl-4-(methyl((1R, 4R)-4-((2-methoxyethyl) (methyl)amino)cyclohexyl)amino)-N-((4-methoxy-6-methyl-2-oxo-1,2-dihydropyridin-3-yl)methyl)-1-methyl-1H-indazole-6-carboxamide] | 14 | – | 32 | – |
| CCc1c(C(=O)NCc2c(C)cc(C)[nH]c2=O)cc2c(cnn2C)c1N(CC)C1CCC(N(C)C)CC1 (stereo not shown) [P-23] | 5 | – | – | 25 |
| CCc1c(C(=O)NCc2c(C)cc(C)[nH]c2=O)cc2c(cnn2C)c1N(CC)C1CCC(NC(F)(F)F)CC1 (stereo not shown) [P-25] | 46 | – | – | 278 |
| CCN(c1c(C)c(C(=O)NCc2c(C)cc(C)[nH]c2=O)cc2c1cnn2C)C1CCC(CN(C)C)CC1 (stereo not shown) [P-26] | 8 | – | – | 48 |
| CCN(c1c(C#N)c(C(=O)NCc2c(C)cc(C)[nH]c2=O)cc2c1cnn2C)C1CCOCC1 [P-27] | 1750 | – | – | > 10000 |
| CCN(c1c(C)c(C(=O)NCc2c(C)cc(C)[nH]c2=O)cc2c1cnn2C)C1CCC(N2CC(F)(F)C2)CC1 (stereo not shown) [P-31] | 15 | – | – | 130 |
| CCN(c1c(C)c(C(=O)NCc2c(C)cc(C)[nH]c2=O)cc2c1cnn2C)C1CCC(N2CC(OCC(F)(F)F)C2)CC1 (stereo not shown) [P-37] | 12 | – | – | 297 |
| CCOC1CN(C2CCC(N(CC)c3c(CC)c(C(=O)NCc4c(C)cc(C)[nH]c4=O)cc4c3cnn4C)CC2)C1 (stereo not shown) [P-39] | 7 | – | – | 5 |
| CCN(c1c(C)c(C(=O)NCc2c(C)cc(C)[nH]c2=O)cc2c1c(F)nn2C)C1CCOCC1 [P-41] | 425 | greatly reduced | – | 2000 |
| CCN(c1ccc(CN(C)C)cc1)c1c(C)c(C(=O)NCc2c(C)cc(C)[nH]c2=O)cc2c1cnn2C [P-43] | 33 | – | – | 123 |
| CCN(c1c(C)c(C(=O)NCc2c(C)cc(C)[nH]c2=O)cc2c1cnn2C)C1CCN(C2COC2)CC1 [P-48, N-((4,6-dimethyl-2-oxo-1,2-dihydropyridin-3-yl)methyl)-4-(ethyl(1-(oxetane-3-yl)piperidin-4-yl)amino)-1,5-dimethyl-1H-indazole-6-carboxamide] | 49 | – | – | 305 |

More lines, main results first:

| IC50 [1] [nM] | inhibitory activity against the enzyme (in words) ([1]; SAR comment on Table 1, reduced relative to comparator compounds (P-7, P-13/14)) | Structure (SMILES) | IC50 (Pfeiffer cells) [nM] | IC50 (Pfeiffer cells; Homo sapiens, 144 h) [nM] |
| --- | --- | --- | --- | --- |
| 5 | – | CCc1c(C(=O)NCc2c(OC)cc(C)[nH]c2=O)cc2c(cnn2C)c1N(CC)C1CCC(N(C)C)CC1 (stereo not shown) [P-22, 4-((4-(dimethylamino)cyclohexyl)(ethyl)amino)-5-ethyl-N-((4-methoxy-6-methyl-2-oxo-1,2-dihydropyridin-3-yl)methyl) 1-methyl-1H-indazole-6-carboxamide] | 66 | – |
| 9 | – | CCc1c(C(=O)NCc2c(C)cc(C)[nH]c2=O)cc2c(cnn2C)c1N(CC)C1CCC(N2CCOCC2)CC1 (stereo not shown) [P-24] | – | 169 |
| 402 | – | CCN(c1c(C2CC2)c(C(=O)NCc2c(C)cc(C)[nH]c2=O)cc2c1cnn2C)C1CCOCC1 [P-28] | – | 702 |
| 34 | – | CCc1c(C(=O)NCc2c(C)cc(C)[nH]c2=O)cc2c(cnn2C)c1N(CC)C1CCC(N2CCNCC2)CC1 (stereo not shown) [P-29] | – | 191 |
| 46 | – | CCc1c(C(=O)NCc2c(C)cc(C)[nH]c2=O)cc2c(cnn2C)c1N(CC)C1CCC(N2CCN(C)CC2)CC1 (stereo not shown) [P-30] | – | 201 |
| 12 | – | CCN(c1c(C)c(C(=O)NCc2c(C)cc(C)[nH]c2=O)cc2c1cnn2C)C1CCC(N2CCCCC2)CC1 (stereo not shown) [P-32] | – | 59 |
| 26 | – | CCN(c1c(C)c(C(=O)NCc2c(C)cc(C)[nH]c2=O)cc2c1cnn2C)C1CCC(N(C)CCN(C)C)CC1 (stereo not shown) [P-34] | – | 196 |
| 13 | – | CCc1c(C(=O)NCc2c(C)cc(C)[nH]c2=O)cc2c(cnn2C)c1N(CC)C1CCC(N2CC(OCC(F)(F)F)C2)CC1 (stereo not shown) [P-36] | – | 3 |
| 60 | – | CCN(c1c(C)c(C(=O)NCc2c(C)cc(C)[nH]c2=O)cc2c1cnn2C)C1CCC(N(C)CC(F)(F)F)CC1 (stereo not shown) [P-44, N-((4,6-dimethyl-2-oxo-1,2-dihydropyridin-3-yl)methyl)-4-(ethyl(4-(methyl(2,2,2-trifluoroethyl)amino)cyclohexyl)amino)-1,5-dimethyl-1H-indazole-6-carboxamide] | – | 300 |
| 7 | – | CCc1c(C(=O)NCc2c(C)cc(C)[nH]c2=O)cc2c(cnn2C)c1N(CC)C1CCC(N2CC(O)C2)CC1 (stereo not shown) [P-47, N-((4,6-dimethyl-2-oxo-1,2-dihydropyridin-3-yl)methyl)-5-ethyl-4-(ethyl(4-(3-hydroxyazetidin-1-yl)cyclohexyl)amino)-1-methyl-1H-indazole-6-carboxamide] | – | 178 |
